Source: ChEMBL document CHEMBL5604062, “ASAP - ZIKV NS2B-NS3 protease fluorescence dose response” (2024)
“And” between values parts separate entries of the source, which are not always exact repeats. Equal entries are not always repeated.

Molecular target: Nonstructural protein 3 (Zika virus, UniProt A0A024AXB9)
Assay: Functional biochemical assay to identify treatments for viral infectious disease that targets Zika NS2B-NS3 protease. Utilizing a direct enzyme activity measurement method, reading the fluorescence intensity is used to characterize the relative potency of inhibitors as IC50.
Parameters: species or system PRVABC59

Chain of Nonstructural protein 3 (A0A024AXB9 whole entry): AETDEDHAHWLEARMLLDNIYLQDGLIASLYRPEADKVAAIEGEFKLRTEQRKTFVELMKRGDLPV

IC50	Structure (SMILES)
> 99.5 µM	CS(=O)(=O)c1ccc(N2CCNCC2)cc1NC(=O)c1cccc2ncccc12
> 99.5 µM	NCc1ccc(NS(=O)(=O)c2ccc(Oc3ccccc3Cl)cc2)cc1Cl
> 99.5 µM	NCc1cccc(NC(=O)[C@@H](NC(=O)OCc2ccccc2)C2CCN(Cc3ccncc3)CC2)c1
> 99.5 µM	O=C(O)c1cc2cc(-c3nccc(C(F)F)n3)ccc2[nH]1
31.7 µM	COC(=O)c1cc(CN)cc([C@@H]2C[C@H]2c2cc(Cl)cc(NC(=O)OCc3ccccc3)c2)c1
0.117 µM	Cc1nc2c(C(=O)Nc3ccc4c(c3)CNC4)cc(Cl)cc2[nH]1
> 99.5 µM	COC(=O)c1cc(Cl)cc(S(=O)(=O)Nc2cccc(-c3nnn[nH]3)c2)c1F
> 99.5 µM	O=C(O)CCc1cccc(NC(=O)c2cc(Cl)cc(NC(=O)OCc3ccccc3)c2)c1
12 µM	O=C(NCc1ccc2c(c1)CNC2)c1cc(Cl)cc2[nH]ncc12
> 25 µM	O=C1Cc2c(cccc2C(=O)N[C@H]2CC[C@@H](n3ccnn3)CC2)N1
8.83 µM	NCc1cccc(NC(=O)[C@H](NC(=O)OCc2ccccc2)c2cccc(-c3ccc4c(c3)CC(=O)N4)c2)c1
> 99.5 µM	CCS(=O)(=O)N[C@@H](C(=O)Nc1cccc(CN)c1)c1ccc(OCc2ccccc2)cc1
3.18 µM	NCc1ccc(NC(=O)c2cc(Cl)cc3[nH]ncc23)cc1
> 99.5 µM	c1ccc(COC2CCN(Cc3c[nH]c4ccccc34)CC2)cc1
0.214 µM	Cn1cc2cc(Cl)cc(C(=O)Nc3ccc4c(c3)CNC4)c2n1
23.7 µM and 23.1 µM	CCOC(=O)c1cc(C(=O)N[C@H](C(=O)Nc2cccc(CN)c2)c2ccc(OCc3ccccc3)cc2)n(C)n1
> 99.5 µM	CC1(N2CCC(NS(=O)(=O)c3ccc(Cl)cc3C(=O)O)CC2)CCCCC1
> 99.5 µM	O=C(Nc1cc(Cl)cc(C(=O)NCC[C@H]2COCCN2)c1)OCc1ccccc1
0.077 µM and 0.066 µM	Cc1cc(C(=O)Nc2ccc3c(c2)CNC3)c2cn[nH]c2c1
> 25 µM	COc1ccccc1Cn1cnc2cc(C(=O)Nc3ccc4c(c3)CNC4)ccc21
> 25 µM	CC1=C(c2cc(F)cc(C(=O)Nc3ccc4c(c3)CNC4)c2)CCCC1
> 99.5 µM	NCc1cccc(NC(=O)[C@H](NC(=O)OCc2ccccc2)C2CCNCC2)c1
61 µM	Cc1occ(C(F)(F)F)c1C(=O)N[C@H](C(=O)Nc1cccc(CN)c1)c1ccc(OCc2ccccc2)cc1
> 24.9 µM	CC1CCN(CCCCNC(=O)C2CCN(c3ccc(C=O)cc3)CC2)CC1
> 25 µM	Cc1nc2cc(Cl)ccc2cc1C(=O)Nc1ccc2c(c1)CNC2
0.048 µM and 0.028 µM	O=C(Nc1cc2c(cc1Br)CNC2)c1cc(F)cc2[nH]ncc12

IC50	Structure (SMILES)
> 99.5 µM	CCn1cc(-c2ccncc2F)nc(N2CC[C@@H](CO)C2)c1=O
> 99.5 µM	CN1CCc2ncc(NC(=O)[C@@H](NC(=O)OCc3ccccc3)c3ccc(OCc4ccccc4)cc3)cc2C1
1.03 µM	CC(C)NC(=O)[C@H](Nc1ccc2c(c1)CNC2)c1cc(F)cc2[nH]ccc12
> 99.5 µM	CC(C)(C)c1ccc2[nH]cc(CN3CCC(c4cscn4)CC3)c2c1
> 25 µM	CC1CCN(CC[C@H]2CCCN2C(=O)Nc2ccc3c(c2)CNC3)CC1
> 99.5 µM	CCn1cc(S(=O)(=O)N[C@@H](C(=O)Nc2cccc(CN)c2)c2ccc(OCc3ccccc3)cc2)cn1
> 99.5 µM	CCn1cc(-c2ccnc(C)c2)nc(N2CC[C@@H](CO)C2)c1=O
> 99.5 µM	CCCN(C)C(=O)Cn1ccnc(N2CC[C@H](CO)C2)c1=O
> 99.5 µM	Cc1ncc(COc2ccc([C@@H](NC(=O)OCc3ccccc3)C(=O)Nc3cccc(CN)c3)cc2)o1
> 99.5 µM	CCn1ccnc(N2C[C@@H](OC(=O)OC)[C@H](c3c[nH]c4ccccc34)C2)c1=O
> 99.5 µM	CCCNC(=O)Cn1ccnc(N2CC[C@H](CO)C2)c1=O
> 25 µM	CC(C)(O)c1cncc(NC(=O)c2cccc3c2CC(=O)N3)c1
14.2 µM and 11.5 µM	NCc1ccc(CNC(=O)[C@@H](NC(=O)OCc2ccccc2)c2ccc(OCc3ccccc3)cc2)cc1
> 12.5 µM	Cc1c(C(=O)Nc2cc(-c3cccnc3)ccn2)cc(C2CCCCC2)n1C
3.42 µM	C[C@@H](N)c1cc(Cl)cc(C(=O)Nc2cccc(CN)c2)c1
> 99.5 µM	CCNC(=O)Nc1cc(Cl)cc(C(=O)Nc2cccc(-c3nn[nH]n3)c2)c1
> 99.5 µM	CC1(C)OB(c2ccc(Cl)cc2CNC2CCCCC2)OC1(C)C
19.8 µM	CS(=O)(=O)c1ccc(CN)cc1NC(=O)c1cc(Cl)cc(NC(=O)OCc2ccccc2)c1
> 99.5 µM	CNC(=O)c1cc(Cl)ccc1NS(=O)(=O)c1ccc(Oc2ccccc2Cl)cc1
> 25 µM	O=C(Nc1cc(-c2cccnc2)ccn1)c1cnn2c1CCC2
88.1 µM	Cc1cc(-c2cccc([C@@H](NC(=O)OCc3ccccc3)C(=O)Nc3cccc(CN)c3)c2)ccn1
> 99.5 µM	O=C1O[C@H]2CCN(Cc3ccc(OCc4ccccc4)cc3)C[C@H]12
> 99.5 µM	NC1CCN(C(=O)c2cc(Cl)cc(NC(=O)OCc3ccccc3)c2)CC1
> 99.5 µM	CCc1cc(COc2ccc(S(=O)(=O)Nc3ccc(Cl)cc3C(=O)O)cc2)no1
5.16 µM	Cc1cc(CN)cc(NC(=O)c2cc(Cl)cc(NC(=O)OCc3ccccc3)c2)c1
> 99.5 µM	CCn1cc(-c2ccc3c(c2)CCNC3)nc(N2CC[C@@H](CO)C2)c1=O

IC50	Structure (SMILES)
2.91 µM	C[C@@H](N)c1ccc(NC(=O)c2cc(Cl)cc3[nH]ncc23)cc1
> 25 µM	CC(C)n1cc(C(=O)Nc2cc(-c3cccnc3)ccn2)cn1
19.9 µM	COc1cc(Br)cc2c1NC(=O)[C@]2(Nc1ccc2c(c1)CNC2)C(N)=O
0.156 µM	C=CC[C@H]1NCc2cc(NC(=O)c3cc(F)cc4c3CC(=O)N4)ccc21
0.863 µM	CC(=O)Nc1cccc(C(=O)Nc2ccc3c(c2)CNC3)c1
7.81 µM	CC(C)CNC(=O)c1cc(Cl)c(F)cc1NS(=O)(=O)c1ccc(Oc2ccccc2Cl)cc1
27.8 µM	CC(C)(C)NC(=O)[C@H](Nc1cccc(-c2nn[nH]n2)c1)c1cc(Cl)cc(NC(=O)OCc2ccccc2)c1
12.3 µM	NCc1ccc2c(c1)N(C(=O)[C@@H](NC(=O)OCc1ccccc1)c1ccc(OCc3ccccc3)cc1)CC2
> 99.5 µM	NCc1cccc(NC(=O)[C@@H](NC(=O)OCc2ccccc2)c2ccc(OC[C@H]3CCCCO3)cc2)c1
0.832 µM	CN1Cc2ccc(NC(=O)c3cc(Cl)cc4[nH]ncc34)cc2C1
32.3 µM	O=C1OCc2ccc(NC(=O)c3cc(Cl)cc4[nH]ncc34)cc21
> 25 µM	O=C1Cc2c(cccc2C(=O)NCC2(F)CC3(CCOCC3)C2)N1
> 99.5 µM	CCn1ccnc(N2CC[C@@H](CC#N)C2)c1=O
> 99.5 µM	NCc1ccc(-c2ncc(OCC3CCNCC3)nc2-c2ccc(-c3ccoc3)cc2)cc1
73.2 µM	NCc1cccc(NC(=O)[C@@H](NC(=O)OCc2ccccc2)c2ccc(-c3ccc(N)nc3)cc2)c1
64.4 µM	CC(C)Oc1cc(CN)ccc1NS(=O)(=O)c1ccc(Oc2ccccc2Cl)cc1
0.028 µM and 0.018 µM	O=C(NCC(F)F)[C@H](Nc1ccc2c(c1)CNC2)c1cc(Cl)cc2ccoc12
0.125 µM	O=C(Nc1ccc2c(c1)CN[C@H]2CO)c1cc(F)cc2[nH]ncc12
3.05 µM	Cc1cc(CN)cc(NC(=O)c2cccc3c2CC(=O)N3)c1
> 99.5 µM	O=C(O)c1cc(Cl)ccc1NS(=O)(=O)c1ccc(OCc2cccnn2)cc1
> 99.5 µM	O=C(c1cc(Cl)ccc1NS(=O)(=O)c1ccc(Oc2ccccc2Cl)cc1)N1CCCC1
27.4 µM	N#C[C@]1(Nc2ccc3c(c2)CNC3)C(=O)Nc2ccccc21
> 99.5 µM	CCC[C@H](Oc1ccc(Cl)cc1C)C(=O)Nc1cccc(CN)c1
> 99.5 µM	O=C(Nc1cc(Cl)cc(C(=O)NC[C@H]2CCNC3(CC3)C2)c1)OCc1ccccc1
0.113 µM	O=C(Nc1ccc2c(c1)CNC2)c1cc(Cl)cc2ccccc12
55.7 µM	COC(=O)c1cc(NC(=O)OCc2ccccc2)cc(C(=O)Nc2cccc(CN)c2)c1

IC50	Structure (SMILES)
4.34 µM	CNCc1ccc(NC(=O)c2cc(Cl)cc3[nH]ncc23)cc1
> 99.5 µM	Cc1c(C(=O)Nc2cccc(-c3nnn[nH]3)c2)sc2ccccc12
3.56 µM	NCc1cccc(NC(=O)[C@@H](NC(=O)OCc2ccccc2)c2ccc(-c3cc4cccnc4s3)cc2)c1
> 99.5 µM	Cc1c(C(=O)Nc2cccc(-c3nnn[nH]3)c2)cnn1-c1ccc(Cl)cc1
0.198 µM	O=C(Nc1ccc2c(c1)CN[C@H]2C[C@H](O)CO)c1cc(Cl)cc2[nH]ncc12
0.395 µM	O=C(Nc1ccc2c(c1)CNC2)c1cc(Cl)cc2[nH]c(-c3cnccc3O)nc12
9.55 µM	O=C(Nc1ccc2c(c1)CNC2)c1cc(Cl)cc2nn[nH]c12
1.66 µM	O=C(Nc1ccc2c(c1)OCCNC2)c1cc(Cl)cc2[nH]ncc12
> 99.5 µM	CCc1cc(C(=O)Nc2cccc(CN)c2)sc1C
> 99.5 µM	CCN1C(=O)CCc2cc(NS(=O)(=O)c3ccc(Cl)cc3C(=O)O)ccc21
> 99.5 µM	O=C(O)c1cc2cc(-c3cccc([C@H]4CNCCO4)c3)ccc2[nH]1
> 99.5 µM	CC(=O)N1CCC[C@H]1C(=O)N[C@@H](C(=O)Nc1cccc(CN)c1)c1ccc(OCc2ccccc2)cc1
> 99.5 µM	O=C(O)c1cc(Cl)ccc1S(=O)(=O)Nc1ccc(S(=O)(=O)Nc2ccccc2)cc1
> 99.5 µM	CCn1c(=O)c(N2CC[C@@H](CN3CCCCC3)C2)nc2ccccc21
> 99.5 µM	COc1ccc2c(O)nn(S(=O)(=O)c3ccc(C(=O)O)cc3)c2c1
> 99.5 µM	O=C(O)c1cc(Cl)ccc1S(=O)(=O)Nc1ccc(CN2CCCCC2)cc1
27.2 µM	COc1ccccc1-c1ccc([C@@H](NC(=O)OCc2ccccc2)C(=O)Nc2cccc(CN)c2)cc1
> 99.5 µM	FC(F)(F)Oc1cc(Cl)cc2c(CN3CCC(c4cscn4)CC3)c[nH]c12
0.033 µM and 0.021 µM	COc1cc(Cl)cc([C@H](Nc2ccc3c(c2)CNC3)C(=O)NCC(F)F)c1
6.27 µM	NCCCc1ccc(F)c(NC(=O)c2cc(Cl)cc(NC(=O)OCc3ccccc3)c2)c1
> 25 µM	Cc1csc(CO[C@H]2CCN(C(=O)Nc3ccc4c(c3)CNC4)C2)n1
11.2 µM	COc1ccc(-c2cccc([C@H](NC(=O)OCc3ccccc3)C(=O)Nc3cccc(CN)c3)c2)c(C#N)c1
67.4 µM	COc1ncccc1-c1cccc([C@H](NC(=O)OCc2ccccc2)C(=O)Nc2cccc(CN)c2)c1

Structure (SMILES)	IC50
CC(C)[C@H](NC(=O)[C@@H]1CCCN1C(=O)OCc1ccccc1)P(=O)(Oc1ccc(F)cc1)Oc1ccc(F)cc1	> 99.5 µM
